# According to patent publication US11446338B2, “Food, cosmetic and pharmaceutical formulation with an immunomodulatory and protective anti-viral effect” (priority 2018, dated 2022):
# Test system: H1N1 influenza virus (California 2011)
# Experiment: Prevention of mortality in immunodeficient mice infected with H1N1 influenza virus
# Format: in vivo
# Conditions: cyclophosphamide-immunodeficient mice, oral 0.2 ml daily, 10 ED90/mouse intranasally
smiles,measurement,value
CC(N)C12CC3CC(CC(C3)C1)C2 (centres unmarked) [Rimantadine],"Percentage of surviving animals after experiment, %",50%
same,"The number of surviving animals after the experiment, n = 10",5
